Laboratory results taken from patent US4148787A, “Antidiuretically effective polypeptide and a process for preparing the same” (Ferring AB, priority 1976, dated 1979).

Columns and labels:
[1] = Relative antidiuretic activity in relation to DDAVP; assay type: in vivo; conditions: relative activity figure, DDAVP arbitrarily set at 1.00
From the text: (§1) Thus, the strenghts in Table I are expressed as relative activity figures, data for DDAVP as a comparative compound being arbitrarily set at 1.00.

[2] = Relative uterotonic activity in relation to DDAVP; conditions: relative activity figure, DDAVP arbitrarily set at 1.00
From the text: as §1

[3] = Relative blood pressure (raising) activity in relation to DDAVP; assay type: in vivo
From the text: as §1

Structure (SMILES) | Antidiuresis (relative activity) [1] | Uterotonic (relative activity) [2] | Blood pressure (relative activity) ([3]; in vivo) | Blood pressure (relative activity) ([3]; relative activity figure, DDAVP arbitrarily set at 1.00)
NC(=O)CC[C@@H]1NC(=O)[C@H](Cc2ccccc2)NC(=O)[C@H](Cc2ccc(O)cc2)NC(=O)[C@@H](N)CSSC[C@@H](C(=O)N2CCC[C@H]2C(=O)N[C@@H](CCCN=C(N)N)C(=O)NCC(N)=O)NC(=O)[C@H](CC(N)=O)NC1=O [Arg-vasopressin, arginine-vasopressin] | 0.10 | 1.0 | 1450 | –
NC(=O)CC[C@@H]1NC(=O)[C@H](Cc2ccccc2)NC(=O)[C@H](Cc2ccc(O)cc2)NC(=O)CCSSC[C@@H](C(=O)N2CCC[C@H]2C(=O)N[C@H](CCCN=C(N)N)C(=O)NCC(N)=O)NC(=O)[C@H](CC(N)=O)NC1=O [DDAVP, desamino-D-arginine^8 -vasopressin] | 1.00 | 1.00 | – | 1.00
